# Source: patent US12414948B2, “Methods” (INTRA-CELLULAR THERAPIES, INC., priority 2022, dated 2025)
# How the values were obtained:
# [1] = test system: hippocampal mRNA (Il1b, Il6, Tnfa, Il10, Icam1, Cldn5, Csf1); assay: Hippocampal mRNA (qRT-PCR), delayed injection of lumateperone 30 minutes after LPS; format: in vivo, mouse; details: for Hippocampal mRNA expression (delayed injection) Cldn5 / Hippocampal mRNA expression (delayed injection) Csf1 / Hippocampal mRNA expression (delayed injection) Icam1: normalized to control
# Method: All other reagents are obtained in the highest purity available from Sigma-Aldrich (St. Louis, MO) unless otherwise noted. […] Some rodents are given a cotreatment with a subcutaneous (SC) injection of lipopolysaccharide (LPS, 500 μg/kg; Sigma-Aldrich, ref #0127:B8) diluted in 0.9% injectable saline while control group animals receive injections of all vehicles matching the experimental conditions. […] On day 2, either no injection for naïve rats, or saline or LPS is injected (1 mg/kg, SC).
# Quantitative Real-Time PCR. Mouse hippocampal tissue is homogenized with glass beads in 1 mL of TRIzol reagent using a BeadBeater (Biospec Products, Bartlesville, OK). Heavy phase-lock gel tubes enabled separation of phases following the addition of 400 μL chloroform to the sample and centrifugation at 12,000 rpm for 10 minutes at room temperature. RNA is extracted using Qiagen Rneasy kit (Qiagen, Hilden, Germany). For cDNA synthesis, 2 μg of total RNA is used (SuperScript IV Reverse Transcriptase; ThermoFisher Scientific, Waltham, MA). […] In the hippocampus, 4 key markers of pro- and anti-inflammatory cytokines and chemokines (Il1b: ID Mm00434228_m1, Tnfa: ID Mm00443258_m1, 116: ID Mm00446190_m1, and I110: ID Mm01288386_m1; ThermoFisher Scientific) are initially chosen for analysis (n=5-12 per group). In subsequent experiments, the transcripts for other markers of inflammation are chosen for analysis including Icam1 (ID Mm00516023_m1; a cell adhesion molecule involved in immune cell migration), Cldn5 (ID Mm00727012_s1; a tight junctions protein), colony stimulating factor 1 (Csf1: ID Mm00432686_m1; a factor that regulates microglia function) and its receptor Csf1r (ID Mm01266652_m1), and the nucleotide binding and oligomerization domain-like receptor family pyrin domain-containing 3 inflammasome complex (Nlrp3: Mm00840904_m1). Gapdh (ID Mm99999915_g1) is chosen as a housekeeping gene. QuantStudio 7 (ThermoFisher Scientific) is used for analyzing the plates (MicroAmp Optical 384-well plates; Applied Biosystems, Waltham, MA, and ThermoFisher Scientific) that are loaded with TaqMan Universal Master Mix II without uracil-DNA glycosylate in a 20 μl reaction volume using 100 ng cDNA per well. All mRNAs are measured by qRT-PCR on ABI Prism 7900HT system using TaqMan Gene Expression Assays. Ct values of genes of interest are normalized to that of the reference gene (Gapdh).
# Samples are collected 1.5 hours later (i.e., 2 hours after LPS injection).
# [2] = test system: hippocampal mRNA (Il1b, Il6, Tnfa, Il10, Cldn5); assay: Hippocampal mRNA (qRT-PCR) after acute restraint stress; format: in vivo, mouse; details: mice, 2 h restraint stress, Luma 3 mg/kg IP
# Method: Quantitative Real-Time PCR. Mouse hippocampal tissue is homogenized with glass beads in 1 mL of TRIzol reagent using a BeadBeater (Biospec Products, Bartlesville, OK). Heavy phase-lock gel tubes enabled separation of phases following the addition of 400 μL chloroform to the sample and centrifugation at 12,000 rpm for 10 minutes at room temperature. RNA is extracted using Qiagen Rneasy kit (Qiagen, Hilden, Germany). For cDNA synthesis, 2 μg of total RNA is used (SuperScript IV Reverse Transcriptase; ThermoFisher Scientific, Waltham, MA). The purity and concentration of RNA is measured with a Nanodrop spectrophotometer; the optical density (OD) 260/280 and OD 260/230 are within 1.8-2.3. In the hippocampus, 4 key markers of pro- and anti-inflammatory cytokines and chemokines (Il1b: ID Mm00434228_m1, Tnfa: ID Mm00443258_m1, 116: ID Mm00446190_m1, and I110: ID Mm01288386_m1; ThermoFisher Scientific) are initially chosen for analysis (n=5-12 per group). In subsequent experiments, the transcripts for other markers of inflammation are chosen for analysis including Icam1 (ID Mm00516023_m1; a cell adhesion molecule involved in immune cell migration), Cldn5 (ID Mm00727012_s1; a tight junctions protein), colony stimulating factor 1 (Csf1: ID Mm00432686_m1; a factor that regulates microglia function) and its receptor Csf1r (ID Mm01266652_m1), and the nucleotide binding and oligomerization domain-like receptor family pyrin domain-containing 3 inflammasome complex (Nlrp3: Mm00840904_m1). Gapdh (ID Mm99999915_g1) is chosen as a housekeeping gene. […] All mRNAs are measured by qRT-PCR on ABI Prism 7900HT system using TaqMan Gene Expression Assays. […]
# Using similar procedures as described above, serum corticosterone levels and hippocampal Cldn5 mRNA expression are measured as well (corticosterone is measured using a commercial ELISA kit).
# Sprague-Dawley rats = assay: Open Field Test (OFT), locomotion; format: in vivo, rat; details: for Open field track length: rats given LPS 1 mg/kg SC, label LPS = LPS + Vehicle, label Luma = Luma 1 mg/kg IP before and after LPS, text: open field track length in meters
# Method: Behavioral Evaluation. All behavioral tests are performed in the morning with adult male Sprague-Dawley rats (n=9-11 per group for the experiments with LPS, and n=13-14 per group for the naïve rats).
# Open Field Test (OFT). Rats are placed in an open field box (76.5×76.5×40 cm^3) under dim lighting and locomotor activity over a 10 minute period is measured using ANY-Maze Software (Stoelting Co., Wood Dale, IL).
# Locomotion in an open field (track length in meters) is also measured as a control. As shown in the following table, locomotor activity is […] regardless of the group: […]
# [3] = LPS 500 μg/kg SC-challenged mice, label LPS = LPS + vehicle, label Luma = Luma 3 mg/kg IP 30 min after LPS, 2 h after LPS
# [4] = LPS 500 μg/kg SC-challenged mice, label LPS = LPS + vehicle, label Luma = Luma 3 mg/kg IP 30 min after LPS, 2 h after LPS, normalized to control (Dct)
# [5] = mice, saline SC then Luma 3 mg/kg IP 30 min later (no LPS)
# [6] = mice, saline SC then Luma 3 mg/kg IP 30 min later (no LPS), samples 1.5 h later, normalized to control (Dct)
# [7] = relative change normalized to control (Dct method)
Compound,"Hippocampal mRNA expression (delayed injection) Cldn5 [1, 3]","Hippocampal mRNA expression (delayed injection) Csf1 [1, 3]","Hippocampal cytokine mRNA expression (delayed injection) IL-6 [1, 4]","Hippocampal cytokine mRNA expression (delayed injection) TNF-alpha [1, 4]","Hippocampal mRNA expression (delayed injection) Cldn5 [1, 5]","Hippocampal mRNA expression (delayed injection) Csf1 [1, 5]","Hippocampal mRNA expression (delayed injection) Icam1 [1, 5]","Hippocampal cytokine mRNA expression (delayed injection) IL-1b [1, 6]","Hippocampal cytokine mRNA expression (delayed injection) IL-6 [1, 6]","Hippocampal cytokine mRNA expression (delayed injection) TNF-alpha [1, 6]",Hippocampal mRNA expression Cldn5 ([2]; normalized to control),"Hippocampal cytokine mRNA expression IL-1b [2, 7]","Hippocampal cytokine mRNA expression IL-6 [2, 7]","OFT locomotion (Sprague-Dawley rats; naïve rats, Luma 1 mg/kg IP on days 1 and 3, 10 minutes) [m]",Open field track length (Sprague-Dawley rats),"Hippocampal mRNA expression (delayed injection) Icam1 [1, 3]","Hippocampal cytokine mRNA expression (delayed injection) IL-1b [1, 4]","Hippocampal cytokine mRNA expression (delayed injection) IL-10 [1, 4]"
"CN1CCN2c3c(cccc31)[C@@H]1CN(CCCC(=O)c3ccc(F)cc3)CC[C@@H]12 [Luma, lumateperone]",0.20,−0.11,−0.10,0.34,0.33,0.05,0.28,0.90,−0.46,−0.31,0.330,0.39,−0.051,32.8 ± 10.2,12.27,,,
"lipopolysaccharide [LPS, reference compound]",−0.63,0.41,1.10,2.33,,,,,,,,,,,12.81,4.33,2.89,1.88
